Measured values: ChEMBL document CHEMBL5500356, “Design, synthesis, and biological evaluation of novel benzimidazole derivatives as anti-cervical cancer agents through PI3K/Akt/mTOR pathway and tubulin inhibition” (Eur J Med Chem, 2024)
The source made the active and inactive calls. The calls are words filed in the database; no cut-off is given here.

Tests used:
[1] = molecular target: RAC-alpha serine/threonine-protein kinase (Homo sapiens) (UniProt P31749); experiment: Inhibition of Akt phosphorylation in human SiHa cells at 4 to 16 uM incubated for 24 hrs by Western blot analysis; type: cell-based; settings: dose 4-16 µM
Sequence of RAC-alpha serine/threonine-protein kinase (Homo sapiens) (P31749 whole entry): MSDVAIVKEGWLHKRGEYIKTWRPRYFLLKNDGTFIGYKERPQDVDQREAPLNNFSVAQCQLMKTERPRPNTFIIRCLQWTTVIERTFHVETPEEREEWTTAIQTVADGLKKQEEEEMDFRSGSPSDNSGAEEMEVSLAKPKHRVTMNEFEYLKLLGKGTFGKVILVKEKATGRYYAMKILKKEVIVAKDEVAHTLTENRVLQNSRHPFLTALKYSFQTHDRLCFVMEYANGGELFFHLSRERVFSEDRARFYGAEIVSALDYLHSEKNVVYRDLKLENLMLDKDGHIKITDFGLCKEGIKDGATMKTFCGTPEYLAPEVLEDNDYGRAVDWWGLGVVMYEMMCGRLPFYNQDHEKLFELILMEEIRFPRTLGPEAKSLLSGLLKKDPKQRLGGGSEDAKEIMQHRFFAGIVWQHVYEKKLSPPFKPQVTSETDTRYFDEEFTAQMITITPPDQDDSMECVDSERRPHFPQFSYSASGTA

SiHa [2] = experiment: Induction of cell cycle arrest in human SiHa cells assessed as accumulation cells at G2/M phase at 16 uM measured after 24 hrs by flow cytometry (reference value: 5.24%); type: functional
SiHa [3] = experiment: Effect on PI3K protein expression in human SiHa cells at 4 to 16 uM incubated for 24 hrs by Western blot analysis; type: functional, cell-based; settings: dose 4-16 µM
SiHa [4] = experiment: Inhibition of PI3K phosphorylation in human SiHa cells at 4 to 16 uM incubated for 24 hrs by Western blot analysis; type: cell-based; settings: dose 4-16 µM
SiHa [5] = experiment: Induction of cell cycle arrest in human SiHa cells assessed as accumulation cells at G2/M phase at 4 uM measured after 24 hrs by flow cytometry (reference value: 5.24%); type: functional
SiHa [6] = experiment: Induction of cell cycle arrest in human SiHa cells assessed as accumulation cells at G2/M phase at 8 uM measured after 24 hrs by flow cytometry (reference value: 5.24%); type: functional
SiHa [7] = experiment: Induction of cell cycle arrest in human SiHa cells assessed as accumulation cells at G0/G1 phase at 8 uM measured after 24 hrs by flow cytometry (reference value: 80.45%); type: functional
[8] = Acute toxicity in AB-wild type zebrafish embryo assessed as malformation rate at 200 uM measured after 96 hrs; design: species or system Danio rerio; settings: in vivo
[9] = Acute toxicity in AB-wild type zebrafish embryo assessed as malformation rate at 400 uM measured after 96 hrs; design: species or system Danio rerio; settings: in vivo
SiHa [10] = experiment: Induction of apoptosis in human SiHa cells assessed as late apoptotic cells at 16 uM incubated for 24 hr by flow cytometry based annexin V-FITC/PI double-staining analysis (reference value: 8.67%); type: functional
SiHa [11] = experiment: Induction of cell cycle arrest in human SiHa cells assessed as accumulation cells at G0/G1 phase at 16 uM measured after 24 hrs by flow cytometry (reference value: 80.45%); type: functional
[12] = Acute toxicity in AB-wild type zebrafish embryo assessed as mortalities at 12.5 uM measured after 96 hrs; design: species or system Danio rerio; settings: in vivo, read-out: Activity
SiHa [13] = experiment: Effect on Akt protein expression in human SiHa cells at 4 to 16 uM incubated for 24 hrs by Western blot analysis; type: functional, cell-based; settings: dose 4-16 µM
[14] = Acute toxicity in AB-wild type zebrafish embryo assessed as malformation rate at 25 uM measured after 96 hrs; design: species or system Danio rerio; settings: in vivo
SiHa [15] = experiment: Induction of apoptosis in human SiHa cells assessed as early apoptotic cells at 8 uM incubated for 24 hr by flow cytometry based annexin V-FITC/PI double-staining analysis (reference value: 2.95%); type: functional
[16] = Cytotoxicity against human L02 cells assessed as cell viability incubated for 48 hrs by MTT assay; type: toxicity, cell-based
Tubulin (Homo sapiens) [17] = molecular target: T1, Tubulin (Homo sapiens) (UniProt P68371+Q9H4B7+P0DPH7+P68366+Q13509+Q71U36+P04350+Q3ZCM7+P07437+P68363+Q9BQE3+Q6PEY2+Q13885+Q9BVA1+Q9BUF5); experiment: Inhibition of tubulin polymerization in human SiHa cells incubated for 24 hrs by DAPI fluorescence staining assay; type: cell-based; settings: dose 4-16 µM
HeLa = experiment: Antiproliferative activity against human HeLa cells assessed as cell viability incubated for 48 hrs by MTT assay; type: functional, cell-based
[18] = Acute toxicity in AB-wild type zebrafish embryo assessed as mortalities at 400 uM measured after 96 hrs; design: species or system Danio rerio; settings: in vivo, read-out: Activity
SiHa [19] = experiment: Induction of cell cycle arrest in human SiHa cells assessed as accumulation cells at S phase at 16 uM measured after 24 hrs by flow cytometry (reference value: 14.31%); type: functional
[20] = Acute toxicity in AB-wild type zebrafish embryo assessed as mortalities at 100 uM measured after 96 hrs; design: species or system Danio rerio; settings: in vivo, read-out: Activity
Ca-Ski = experiment: Antiproliferative activity against human Ca-Ski cells assessed as cell viability incubated for 48 hrs by MTT assay; type: functional, cell-based
[21] = Acute toxicity in AB-wild type zebrafish embryo assessed as malformation rate at 12.5 uM measured after 96 hrs; design: species or system Danio rerio; settings: in vivo
[22] = Acute toxicity in AB-wild type zebrafish embryo assessed as mortalities at 25 uM measured after 96 hrs; design: species or system Danio rerio; settings: in vivo, read-out: Activity
[23] = Acute toxicity in AB-wild type zebrafish embryo assessed as malformation rate at 50 uM measured after 96 hrs; design: species or system Danio rerio; settings: in vivo
[24] = Acute toxicity in AB-wild type zebrafish embryo assessed as malformation rate at 100 uM measured after 96 hrs; design: species or system Danio rerio; settings: in vivo
SiHa [25] = experiment: Induction of apoptosis in human SiHa cells assessed as late apoptotic cells at 4 uM incubated for 24 hr by flow cytometry based annexin V-FITC/PI double-staining analysis (reference value: 8.67%); type: functional
SiHa [26] = experiment: Induction of cell cycle arrest in human SiHa cells assessed as accumulation cells at S phase at 4 uM measured after 24 hrs by flow cytometry (reference value: 14.31%); type: functional
SiHa [27] = experiment: Induction of cell cycle arrest in human SiHa cells assessed as accumulation cells at S phase at 8 uM measured after 24 hrs by flow cytometry (reference value: 14.31%); type: functional
SiHa [28] = experiment: Induction of apoptosis in human SiHa cells assessed as early apoptotic cells at 4 uM incubated for 24 hr by flow cytometry based annexin V-FITC/PI double-staining analysis (reference value: 2.95%); type: functional
[29] = Acute toxicity in AB-wild type zebrafish embryo assessed as mortalities at 200 uM measured after 96 hrs; design: species or system Danio rerio; settings: in vivo, read-out: Activity
SiHa [30] = experiment: Induction of cell cycle arrest in human SiHa cells assessed as accumulation cells at G0/G1 phase at 4 uM measured after 24 hrs by flow cytometry (reference value: 80.45%); type: functional
[31] = Acute toxicity in AB-wild type zebrafish embryo assessed as mortalities at 50 uM measured after 96 hrs; design: species or system Danio rerio; settings: in vivo, read-out: Activity
SiHa [32] = experiment: Induction of apoptosis in human SiHa cells assessed as late apoptotic cells at 8 uM incubated for 24 hr by flow cytometry based annexin V-FITC/PI double-staining analysis (reference value: 8.67%); type: functional
SiHa [33] = experiment: Antiproliferative activity against human SiHa cells assessed as cell viability incubated for 48 hrs by MTT assay; type: functional, cell-based
[34] = Cytotoxicity against human HEK293T cells assessed as cell viability incubated for 48 hrs by MTT assay; type: toxicity, cell-based, HEK-293T
[35] = molecular target: Serine/threonine-protein kinase mTOR (Homo sapiens) (UniProt P42345); experiment: Inhibition of mTOR phosphorylation in human SiHa cells at 4 to 16 uM incubated for 24 hrs by Western blot analysis; type: cell-based; settings: dose 4-16 µM
Tubulin (Homo sapiens) [36] = molecular target: T1, Tubulin (Homo sapiens); experiment: Inhibition of tubulin formation in human SiHa cells incubated for 24 hrs by Western blot analysis; type: cell-based
SiHa [37] = experiment: Effect on mTOR protein expression in human SiHa cells at 4 to 16 uM incubated for 24 hrs by Western blot analysis; type: functional, cell-based; settings: dose 4-16 µM
SiHa [38] = experiment: Induction of apoptosis in human SiHa cells assessed as early apoptotic cells at 16 uM incubated for 24 hr by flow cytometry based annexin V-FITC/PI double-staining analysis (reference value: 2.95%); type: functional

COc1cc(-c2nc3cc(N4CCN(C)CC4)c(C#Cc4ccccc4F)cc3[nH]2)cc(OC)c1OC
inhibition [1]: Active
Activity (SiHa [2]): 28.37%
Activity (SiHa [3]): inactive
inhibition (SiHa [4]): Active
Activity (SiHa [5]): 7.26%
Activity (SiHa [6]): 8.92%
Activity (SiHa [7]): 82.37%
Activity [8]: 0%
Activity [9]: 0%
Activity (SiHa [10]): 15.86%
Activity (SiHa [11]): 55.29%
mortality at 96 h, 12.5 µM [12]: 0%
Activity (SiHa [13]): inactive
Activity [14]: 0%
Activity (SiHa [15]): 66.56%
IC50 at 48 h [16]: 21.1 µM
inhibition (Tubulin (Homo sapiens) [17]): Dose-Dependent Effect
IC50 (HeLa): 5.03 µM
mortality at 96 h, 400 µM [18]: 0%
Activity (SiHa [19]): 16.33%
mortality at 96 h, 100 µM [20]: 0%
IC50 (Ca-Ski): 7.24 µM
Activity [21]: 0%
mortality at 96 h, 25 µM [22]: 0%
Activity [23]: 0%
Activity [24]: 0%
Activity (SiHa [25]): 8.49%
Activity (SiHa [26]): 9.89%
Activity (SiHa [27]): 8.71%
Activity (SiHa [28]): 8.55%
mortality at 96 h, 200 µM [29]: 0%
Activity (SiHa [30]): 82.4%
mortality at 96 h, 50 µM [31]: 0%
Activity (SiHa [32]): 16.43%
IC50 (SiHa [33]): 3.38 µM
IC50 at 48 h [34]: 24 µM
inhibition [35]: Active
inhibition (Tubulin (Homo sapiens) [36]): Dose-Dependent Effect
Activity (SiHa [37]): inactive
Activity (SiHa [38]): 82.7%
